Data as given in patent US11021506B2, “Thiosaccharide mucolytic agents” (The Regents of the University of California, priority 2013, dated 2021).
Entries after “also recorded” stand apart in the source; their conditions may differ.

Tests used:
[1] = Rheometry: elastic modulus (G′) of pooled induced sputum from healthy subjects; parameters: species or system human; details: for effect on elastic modulus G′ (in words): 1 mM (FIG. 1)
Procedure: A rheometer was employed to determine the effect of the compounds disclosed herein on the elastic modulus (G′) of sputum sample from human subjects. The terms “elastic modulus,” “G′,” and the like refer to the elastic modulus as known in the art. Inhalation of 3% saline facilitates mucus expectoration (“induced sputum”) in human subjects, including in healthy subjects without lung disease. A typical sputum induction yields 3-5 mL of sputum, and induced sputum samples can be pooled from several donors in order to provide as much as 20 mL with for any given set of experiments. The rheometer can use 1 mL per assay. Rheological measurements can be made, e.g., with a AR2000 cone-and-plate rheometer (TA Instruments), as known in the art. Patients with cystic fibrosis (CF) are able to spontaneously expectorate sputum samples. […] We typically add the test compound to induced sputum at a 10% v/v, and we calculate effect of the test compound by measuring G′ every 2 minutes for periods up to 20 minutes. Because oxidation can cause baseline drift, we keep the experiment under nitrogen to improve signal to noise ratios. We custom modified a cone and plate rheometer to permit this kind of control in our rheometry experiments. Another protocol element that we use to optimize signal to noise is the addition of protease inhibitors to CF sputum to inhibit protease digestion of mucin. As depicted in FIG. 1, the elastic modulus (G′) of pooled induced sputum from five healthy subjects was determined as a function of time in the presence of 1 mM PBS (phosphate buffered saline), NAC (N-acetylcysteine), Cmpd 1, Cmpd 29, Glc-NAc, and Gal-NAc.

[2] = Rheometry: elastic modulus (G′) of sputum from cystic fibrosis (CF) patients; parameters: species or system human; details: for effect on G′ of CF sputum: sputum pooled from three CF patients (FIG. 3); for mucolytic effect: change in elastic modulus G′ (%-change from baseline): twelve-minute test period (FIG. 5A); for mucolytic effect on elastic modulus G′ over 12-minute test period: CF sputum n=5 donors (FIG. 7A); for mucolysis: onset and endpoint (12-minutes), change in G′: single sputum sample from a CF patient (FIG. 6)
Procedure: (§1) A rheometer was employed to determine the effect of the compounds disclosed herein on the elastic modulus (G′) of sputum sample from human subjects. The terms “elastic modulus,” “G′,” and the like refer to the elastic modulus as known in the art. Inhalation of 3% saline facilitates mucus expectoration (“induced sputum”) in human subjects, including in healthy subjects without lung disease. A typical sputum induction yields 3-5 mL of sputum, and induced sputum samples can be pooled from several donors in order to provide as much as 20 mL with for any given set of experiments. The rheometer can use 1 mL per assay. Rheological measurements can be made, e.g., with a AR2000 cone-and-plate rheometer (TA Instruments), as known in the art.
(§2) Patients with cystic fibrosis (CF) are able to spontaneously expectorate sputum samples. […] We typically add the test compound to induced sputum at a 10% v/v, and we calculate effect of the test compound by measuring G′ every 2 minutes for periods up to 20 minutes. Because oxidation can cause baseline drift, we keep the experiment under nitrogen to improve signal to noise ratios. We custom modified a cone and plate rheometer to permit this kind of control in our rheometry experiments. Another protocol element that we use to optimize signal to noise is the addition of protease inhibitors to CF sputum to inhibit protease digestion of mucin. […]
A series of time courses of the change in baseline G′ (%-change from baseline) of sputum samples at 10 mM concentration of MDG and Cmpds 1-5 is depicted in FIG. 6. Each datum in the figure was obtained from a single sputum sample from a patient with cystic fibrosis. […] Moreover, the length of the chain leading to the thiol is important; compare Cmpd 2 (C5 alkylene) vs. Cmpd 3 (C2 alkylene).
A time course of the change in baseline G′ (%-change from baseline) at 10 mM concentration of thiosaccharide is depicted in FIG. 7A. The drugs compared include an unmodified sugar (MDG), Glutathione (GSH, a natural endogenous reducing agent), N-acetyl cysteine (NAC), Cmpd 1 and Cmpd 2.

[3] = Rheometry: disulfide dimer study, elastic modulus (G′) of sputum (source not stated); parameters: species or system human; details: 10 mM (FIG. 2)
Procedure: as §1, §2

[4] = Oxidation-reduction potential (ORP) measurement; assay type: physicochemical; details: solutions (1 mM); for Reducing capacity (ORP): ORP probe; for reducing properties (in words): compared to parent sugar (PS) control
Procedure: An INLAB® Redox Micro ORP probe (Mettler Toledo) was employed, which utilizes a small platinum ring indicator electrode and a 3M KCL reference electrolyte. ORP values were determined for thiosaccharides, NAC and glutathione.

[5] = cited from earlier work
[6] = 61 mM, CF sputum n=5 donors, 12 minutes (FIG. 5C)

Reducing capacity (ORP) [4] [mV]	reducing properties (in words) [4]	Structure (SMILES)	mucolytic effect: change in elastic modulus G′ (%-change from baseline) ([2]; 61 mM, CF sputum n=5 donors)	mucolytic effect on elastic modulus G′ over 12-minute test period ([2]; 10 mM)	mucolysis: onset and endpoint (12-minutes), change in G′ ([2]; 10 mM)	further results
99	relatively strong reducing capabilities	CO[C@H]1OC(CS)[C@H](O)C(O)C1O (stereo partly drawn) [Cmpd 1, methyl 6-deoxy-6-thio-α-D-galactopyranoside]	decrease the elastic modulus (G′)	–	–	decrease in elastic modulus G′ ([1]; 1 mM, during the time course of the experiment (FIG. 1)): ~30%; effect on G′ of CF sputum ([2]; 10 mM): larger than the effect in healthy induced sputum; onset of action ([2]; 61 mM, CF sputum): significantly faster onset of action relative to either parent sugar MDG or NAC; average mucolytic effect at two minutes ([2]; 61 mM, CF sputum n=5 donors, 2 minutes (FIG. 5B)): significantly larger than observed for NAC; also recorded: much larger mucolytic effects than NAC; mucolytic effect at 12 minutes [2, 6]: similar; decrease in elastic modulus G′ of individual sputum samples from CF patients ([2]; individual samples from three CF patients (FIGS. 4A-4D)): ca. 50%; efficacy in reducing elastic modulus G′ (comparison) [3]: more effective in reducing elastic modulus G′ than either the disulfide dimer of Cmpd 1 or Cmpd 6
−15	very strong reducing activity	OCC1O[C@@H](OCCCCCS)C(O)[C@@H](O)[C@H]1O (stereo partly drawn) [Cmpd 2, 5-Thiolpentyl β-D-galactopyranoside]	–	largest effect	affords a better mucolytic than mannose (Cmpd 5) or glucose (Cmpd 4)	mucolytic effect at two minutes ([2]; 10 mM, CF sputum n=5 donors, 2 minutes (FIG. 7B)): much larger mucolytic effects than NAC; mucolytic effect at 12 minutes ([2]; 10 mM, CF sputum n=5 donors, 12 minutes (FIG. 7C)): significantly greater than observed for NAC; also recorded: significantly greater than for Cmpd 1; also recorded: much larger mucolytic effects than NAC; also recorded: significantly greater than that of Cmpd 1
176	–	CO[C@H]1O[C@H](CO)[C@H](O)[C@H](O)[C@H]1O [MDG, methyl α-D-galactopyranoside, reference compound]	no mucolytic effect	ineffective as mucolytics	–	effect on G′ of CF sputum ([2]; 10 mM): ineffective in decreasing G′ of CF sputum
121	did not have strong reducing properties	CC(=O)N[C@@H](CS)C(=O)O [NAC, N-Acetylcysteine, reference compound]	decrease the elastic modulus (G′)	no better than control solutions	–	effect on elastic modulus G′ (in words) [1]: not effective in decreasing G′; mucolytic effect at 12 minutes [2, 6]: similar; pKa [5]: 2.2

The remaining lines, values behind:

Structure (SMILES)	Reducing capacity (ORP) [4] [mV]	reducing properties (in words) [4]	mucolytic effect: change in elastic modulus G′ (%-change from baseline) ([2]; 61 mM, CF sputum n=5 donors)	mucolytic effect on elastic modulus G′ over 12-minute test period ([2]; 10 mM)	mucolysis: onset and endpoint (12-minutes), change in G′ ([2]; 10 mM)	further results
OCC1O[C@H](OCCCCCS)C(O)[C@@H](O)[C@@H]1O (stereo partly drawn) [Cmpd 4]	–	–	–	–	a galactose moiety (i.e., Cmpd 2) affords a better mucolytic than mannose (Cmpd 5) or glucose (Cmpd 4)	–
OCC1O[C@@H](OCCCCCS)C(O)[C@@H](O)[C@@H]1O (stereo partly drawn) [Cmpd 5]	–	–	–	–	a galactose moiety (i.e., Cmpd 2) affords a better mucolytic than mannose (Cmpd 5) or glucose (Cmpd 4)	–
CO[C@H]1OC(CO)[C@H](S)[C@H](O)C1O (stereo partly drawn) [Cmpd 29]	–	–	–	–	–	effect on elastic modulus G′ (in words) [1]: approximately half of the decrease in G′ observed with Cmpd 1
N[C@@H](CCC(=O)N[C@@H](CS)C(=O)NCC(=O)O)C(=O)O [GSH, Glutathione]	140	did not have strong reducing properties	–	ineffective as mucolytics	–	–
